Test results from patent US20110034434A1, “PRODRUGS OF FUSED HETEROCYCLIC INHIBITORS OF D-AMINO ACID OXIDASE” (SEPRACOR INC., priority 2009, published 2011).

How the values were obtained:
[1] = test system: D-serine; experiment: PK-PD evaluation in rats: D-serine levels in cerebellum after oral dosing; assay type: in vivo; details: rat cerebellum, 6 hours after PO dosing, dose normalized to 10 mg/kg of the acid; mean ± spread (n)
Method: Rats (Harlan male Sprague) (N=3) were dosed orally with an amount of test compound, suspended in 45% (w/v) hydroxy-β-cyclodextrin vehicle, dose normalized to 10 mg/kg of the corresponding carboxylic acid. Additional male cannulated rats (N=3) were dosed orally with the parent carboxylic acid, suspended in 45% (w/v) hydroxy-β-cyclodextrin vehicle, at 10 mg/kg. Animals were sacrificed at pre-determined time points (e.g., 0.5, 2 and/or 6 hours post administration) with an N=3 at each time point. At sacrifice, trunk blood was collected into tubes containing potassium EDTA, which were then centrifuged to permit isolation of plasma. The cerebellum was dissected from each animal. Plasma and cerebellum samples were stored at −80° C. until samples were analyzed using a SCIEX API2000 or SCIEX API5000 LC/MS/MS. Samples were analyzed for the amount of corresponding parent acid, D-serine, and/or the amount of test compound.
Conversion of test compounds to 4H-furo[3,2-b]pyrrole-5-carboxylic acid (“acid”; 77) in rats was evaluated according to General Procedure 12. 4H-furo[3,2-b]pyrrole-5-carboxylic acid and D-serine levels in plasma and cerebellum were measured. Animals were sacrificed at 6 hours post administration. In Table 6, “[D-serine] cerebellum” refers to D-serine levels, in nmol/g, in the rat cerebellum. In Table 6, “[acid] cerebellum” refers to the concentration, in μM, of the 4H-furo[3,2-b]pyrrole-5-carboxylic acid in the cerebellum. In Table 6, “[acid] plasma” refers to the concentration, in μM, of the 4H-furo[3,2-b]pyrrole-5-carboxylic acid in the plasma. The row labeled “acid”, denotes the data obtained from dosing 4H-furo[3,2-b]pyrrole-5-carboxylic acid. The row labeled “vehicle” denotes the data obtained from dosing vehicle, and the remaining row in the table denote the data obtained from dosing the test compounds.

[2] = Hydrolysis rate of test compounds in pH 7.4 and 2.0 aqueous solution; assay type: physicochemical; details: HPLC; for Hydrolysis rate at pH 7.4: 0.05 M sodium phosphate buffer pH 7.4, over 6 hours; for Hydrolysis rate at pH 2.0: water adjusted with phosphoric acid to pH 2.0, over 2 hours
Method: 10 mM DMSO solutions of test compounds were diluted with a 0.05 M sodium phosphate buffer (pH 7.4) or water adjusted with phosphoric acid to pH 2.0, with a final concentration of 0.013 mg/mL. Samples were analyzed over either 2 or 6 hours, by HPLC.
The amount of test compound and the corresponding acid were determined. The rate of conversion of the test compound was calculated based on formation of the corresponding acid and loss of parent.
The rate of hydrolysis of test compounds to 4H-furo[3,2-b]pyrrole-5-carboxylic acid was evaluated in pH 7.4 aqueous solution over 6 hours, and in pH 2.0 aqueous solution over 2 hours, according to General Procedure 14.

SMILES	[D-serine] cerebellum [1]	Hydrolysis rate at pH 7.4 [2]	Hydrolysis rate at pH 2.0 [2]
CN(C)C(=O)COC(=O)c1cc2occc2[nH]1 [compound 20, 2-(dimethylamino)-2-oxoethyl 4H-furo[3,2-b]pyrrole-5-carboxylate]	19 ± 0.8(6) nmol/g	No hydrolysis	No hydrolysis
O=C(OCC(=O)N1CCOCC1)c1cc2occc2[nH]1 [compound 21, 2-morpholino-2-oxoethyl 4H-furo[3,2-b]pyrrole-5-carboxylate]	19 ± 1.0(6) nmol/g	No hydrolysis	No hydrolysis
O=C(OCCN1CCOCC1)c1cc2occc2[nH]1 [compound 30, 2-morpholinoethyl 4H-furo[3,2-b]pyrrole-5-carboxylate]	14 ± 1.2(3) nmol/g	No hydrolysis	No hydrolysis
CC(OC(=O)c1cc2occc2[nH]1)OC(=O)C(C)C (stereo not shown) [compound 35, 1-(isobutyryloxy)ethyl 4H-furo[3,2-b]pyrrole-5-carboxylate]	16 ± 0.9(3) nmol/g	3.46%/hr	
CC(OC(=O)OC1CCCCC1)OC(=O)c1cc2occc2[nH]1 (stereo not shown) [compound 39, 1-(cyclohexyloxycarbonyloxy)ethyl 4H-furo[3,2-b]pyrrole-5-carboxylate]	17 ± 2.6(3) nmol/g	0.21%/hr	
Cc1oc(=O)oc1COC(=O)c1cc2occc2[nH]1 [compound 72, (5-methyl-2-oxo-1,3-dioxol-4-yl)methyl 4H-furo[3,2-b]pyrrole-5-carboxylate]	21 ± 3.5(9) nmol/g	0.20%/hr	No hydrolysis
